Patent US7439240B2, “Purine-or pyrrolol[2,3-d]pyrimidine-2-carbonitiles for treating diseases associated with cysteine protease activity” (AstraZeneca AB, priority 2002, dated 2008)

melting point: 183 °C
SMILES: CCn1ccc2c(Nc3ccc(Cl)cc3)nc(C#N)nc21 [Example 27, 4-[(4-Chlorophenyl)amino]-7-ethyl-7H-pyrrolo[2,3-d]pyrimidine-2-carbonitrile]
